B1: Glycinamide-RNase-transformylase T from Mycobacterium tuberculosis (enzyme)
chain: MIDGWTEEQHEPTVRHERPAAPQDVRRVMLLGSAEPSRELAIALQGLGAEVIAVDGYVGAPAHRIADQSVVVTMTDAEELTAVIRRLQPDFLVTVTAAVSVDALDAVEQADGECTELVPNARAVRCTADREGLRRLAADQLGLPTAPFWFVGSLGELQAVAVHAGFPLLVSPVAGVAGQGSSVVAGPNEVEPAWQRAAGHQVQPQTGGVSPRVCAESVVEIEFLVTMIVVCSQGPNGPLIEFCAPIGHRDADAGELESWQPQKLSTAALDAAKSIAARIVKALGGRGVFGVELMINGDEVYFADVTVCPAGSAWVTVRSQRLSVFELQARAILGLAVDTLMISPGAARVINPDHTAGRAAVGAAPPADALTGALGVPESDVVIFGRGLGVALATAPEVAIARERAREVASRLNVPDSRE
notes: also called MtbPurT; PurT

Experiments:
[1] = target: T1, phBCCPPurT (Pyrococcus horikoshii, UniProt O58056); assay: biochemical; assay type: binding; settings: read-out: apparent Kd
T1 construct: gene purT

[2] = target: the molecule itself; assay: SEC

T1 sequence (O58056 whole entry): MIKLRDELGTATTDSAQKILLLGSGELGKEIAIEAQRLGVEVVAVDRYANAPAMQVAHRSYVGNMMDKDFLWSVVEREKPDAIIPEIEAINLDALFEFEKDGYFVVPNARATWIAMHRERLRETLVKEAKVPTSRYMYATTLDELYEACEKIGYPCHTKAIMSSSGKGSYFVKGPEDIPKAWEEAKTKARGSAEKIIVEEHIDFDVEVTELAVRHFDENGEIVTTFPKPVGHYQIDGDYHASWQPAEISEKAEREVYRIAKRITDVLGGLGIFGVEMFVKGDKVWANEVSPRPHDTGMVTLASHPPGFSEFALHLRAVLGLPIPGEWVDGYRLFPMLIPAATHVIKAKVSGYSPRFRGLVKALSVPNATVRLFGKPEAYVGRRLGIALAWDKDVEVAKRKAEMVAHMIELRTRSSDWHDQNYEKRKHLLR

Row | Molecule | Kd [1] | stoichiometry N [2]
1 | Nc1ncnc2c1ncn2[C@@H]1O[C@H](CO[P@](=O)(O)O[P@](=O)(O)O[P@@](=O)(O)S)[C@@H](O)[C@H]1O [ATPγS] | 41.8 ± 7.21 µM | –
2 | B1 | – | 2

— PMC6968694 (Emerging Microbes & Infections, 2020)
